Assay results reported in PMC3908673 (Bioorganic & medicinal chemistry, 2013).
Where two headings read alike, the source gives them in different places.

Tests used:
β2-AR [1] = molecular target: T1, β2-AR (Homo sapiens, UniProt P07550); conditions: marker [3H]-(R,R′)-2
β2-AR [2] = molecular target: T1, β2-AR; assay type: binding
[3] = system: isolated rat ventricular myocytes; assay: cardiomyocyte contractility model; assay type: cell-based; conditions: initial studies, unpublished data
1321N1 astrocytoma cells [4] = assay: inhibition of proliferation of 1321N1 astrocytoma cells; assay type: cell-based; conditions: Homo sapiens, 1321-N1, read-out: IC50, proliferation of 1321N1 astrocytoma cells
Gs proteins = conditions: ref [2]; cited from earlier work
[5] = system: isolated rat ventricular myocytes; conditions: cited from earlier work
[6] = molecular target: β2-AR relative to the β1-AR; conditions: β2-AR subtype selectivity; ref [3]; cited from earlier work
1321N1 astrocytoma cells [7] = conditions: read-out: IC50, proliferation of 1321N1 astrocytoma cells; ref [5]; cited from earlier work

T1 sequence (P07550 whole entry): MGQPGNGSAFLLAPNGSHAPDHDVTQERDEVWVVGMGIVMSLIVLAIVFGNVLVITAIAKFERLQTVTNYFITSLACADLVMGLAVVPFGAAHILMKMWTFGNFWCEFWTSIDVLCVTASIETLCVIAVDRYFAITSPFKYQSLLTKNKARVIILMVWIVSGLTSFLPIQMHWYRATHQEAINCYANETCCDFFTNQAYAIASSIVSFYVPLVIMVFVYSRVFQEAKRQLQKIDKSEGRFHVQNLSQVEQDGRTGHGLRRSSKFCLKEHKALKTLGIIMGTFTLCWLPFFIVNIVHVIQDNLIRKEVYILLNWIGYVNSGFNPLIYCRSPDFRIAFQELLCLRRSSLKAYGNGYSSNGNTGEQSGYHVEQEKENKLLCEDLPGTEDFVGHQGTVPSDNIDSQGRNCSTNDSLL

Compound | HS (Hill coefficient), displacement of [3H]-(R,R′)-2 (β2-AR [1]) | HS (Hill coefficient), displacement of [3H]-CGP-12177 (β2-AR [2]; marker [3H]-CGP-12177) | other results
COc1ccc(C[C@H](C)NC[C@H](O)c2cc(O)cc(O)c2)cc1 [(R,S′)-2] | 1.00 ± 0.05 | – | HS (Hill coefficient), displacement of [3H]-CGP-12177 (β2-AR [2]): 1.01 ± 0.14
CC[C@@H](Cc1ccc(O)cc1)NC[C@H](O)c1cc(O)cc(O)c1 [(R,S′)-52] | 0.87 ± 0.2 | 2.07 ± 0.4 | –
CC[C@H](Cc1ccc(OC)cc1)NC[C@H](O)c1cc(O)cc(O)c1 [(R,R′)-64, (R,R′)-(−)-5-(1-Hydroxy-2-((1-(4-methoxyphenyl)butan-2-yl)amino)ethyl)benzene-1,3-diol] | 0.82 ± 0.04 | 1.00 ± 0.11 | decrease in binding affinity compared with (R,R′)-2 (β2-AR [1]): 10 fold; Ki lower than (R,R′)-52 (β2-AR [2]; marker [3H]-CGP-12177): 3 fold; Ki(R,S′)/Ki(R,R′) (β2-AR [2]; marker [3H]-CGP-12177, difference between (R,S′)- and (R,R′)-isomers): 50 fold; activity in the cardiomyocyte contractility model [3]: no activity; IC50 (1321N1 astrocytoma cells [4]): 1.5 nM
COc1ccc(CCNC[C@@H](O)c2cc(O)cc(O)c2)cc1 [(S)-67, (S)-5-(1-Hydroxy-2-((4-methoxyphenethyl)amino)ethyl)benzene-1,3-diol] | 0.89 ± 0.03 | – | –
COc1ccc(CCNC[C@H](O)c2cc(O)cc(O)c2)cc1 [(R)-67, (R)-(−)-5-(1-Hydroxy-2-((4-methoxyphenethyl)amino)ethyl)benzene-1,3-diol] | 1.59 ± 0.50 | 1.80 ± 0.70 | Ki lower than (S)-67 (β2-AR [1]): 10 fold
COc1ccc(C[C@@H](NC[C@H](O)c2cc(O)cc(O)c2)C(C)C)cc1 [(R,S′)-65, (R,S′)-(−)-5-(1-hydroxy-2-((1-(4-methoxyphenyl)-3-methylbutan-2-yl)amino)-ethyl)benzene-1,3-diol] | 1.45 ± 0.56 | – | –
COc1ccc(C[C@@H](C)NC[C@H](O)c2cc(O)cc(O)c2)cc1 [(R,R′)-2, (R,R′)-4′-methoxyfenoterol] | 0.80 ± 0.9 | – | G protein coupling (Gs proteins): selectively signaled through Gs proteins; HS (Hill coefficient), displacement of [3H]-CGP-12177 (β2-AR [2]): 0.98 ± 0.05
COc1ccc(C[C@H](NC[C@H](O)c2cc(O)cc(O)c2)C(C)C)cc1 [(R,R′)-65, (R,R′)-5-(1-Hydroxy-2-((1-(4-methoxyphenyl)-3-methylbutan-2-yl)amino)ethyl)-benzene-1,3-diol] | 1.41 ± 0.47 | – | –
COc1ccc(C[C@H](C)NC[C@H](O)c2cc(O)cc(O)c2)c2ccccc12 [(R,S′)-54] | 0.90 ± 0.2 | 1.06 ± 0.02 | –
CCC[C@H](Cc1ccc(OC)cc1)NC[C@H](O)c1cc(O)cc(O)c1 [(R,R′)-66, (R,R′)-5-(1-Hydroxy-2-((1-(4-methoxyphenyl)pentan-2-yl)amino)ethyl)benzene-1,3-diol] | 1.38 ± 0.32 | 0.90 ± 0.03 | –
CC[C@H](Cc1ccc(O)cc1)NC[C@H](O)c1cc(O)cc(O)c1 [(R,R′)-52] | 0.93 ± 0.1 | 1.01 ± 0.01 | stimulation of rat cardiomyocyte contractility ([5]; ref [3]): essentially inactive; lower activity in the cardiomyocyte contractility model ([5]; relative to other tested compounds, ref [3]): > 100 fold; Kiβ1-AR/Kiβ2-AR [6]: 334; IC50 (1321N1 astrocytoma cells [7]): 1.4 nM
CC[C@@H](Cc1ccc(OC)cc1)NC[C@H](O)c1cc(O)cc(O)c1 [(R,S′)-64, (R,S′)-(+)-5-(1-Hydroxy-2-((1-(4-methoxyphenyl)butan-2-yl)amino)ethyl)benzene-1,3-diol] | 0.86 ± 0.05 | – | –
CCC[C@@H](Cc1ccc(OC)cc1)NC[C@H](O)c1cc(O)cc(O)c1 [(R,S′)-66, (R,S′)-5-(1-Hydroxy-2-((1-(4-methoxyphenyl)pentan-2-yl)amino)ethyl)benzene-1,3-diol] | 0.89 ± 0.14 | – | –
COc1ccc(C[C@@H](C)NC[C@@H](O)c2cc(O)cc(O)c2)cc1 [(S,R′)-2] | 0.86 ± 0.13 | – | –
COc1ccc(C[C@@H](C)NC[C@H](O)c2cc(O)cc(O)c2)c2ccccc12 [(R,R′)-54] | 0.86 ± 0.1 | 1.07 ± 0.09 | –
C[C@H](Cc1ccc(O)cc1)NC[C@H](O)c1cc(O)cc(O)c1 [(R,R′)-1, (R,R′)-Fenoterol] | 0.76 ± 0.1 | – | G protein coupling (Gs proteins): selectively couples to Gs proteins; increase in contractile response ([5]; isolated rat ventricular myocytes, ref [1],[2]): 300%
C[C@@H](Cc1ccc(O)cc1)NC[C@H](O)c1cc(O)cc(O)c1 [(R,S′)-1] | 0.97 ± 0.1 | 0.81 ± 0.1 | –
COc1ccc(C[C@H](C)NC[C@@H](O)c2cc(O)cc(O)c2)cc1 [(S,S′)-2] | 1.68 ± 0.54 | – | HS (Hill coefficient), displacement of [3H]-CGP-12177 (β2-AR [2]): 2.30 ± 0.32
